# Values quoted from earlier work, collected in patent US20110052727A1, “Anti Influenza Nutritional Supplements” (priority 2009, published 2011).
# Tested on: lung-adapted PR-8 virus
# Settings: mouse, in vivo
compound,measurement,value
"O=C/C=C/c1ccccc1 [CA, trans-cinnamaldehyde]",virus yield reduction in bronchoalveolar lavage fluid,1 log
